Data published in US11724999B2, “Inhibitors of RAS-effector protein interactions” (Oxford University Innovation Limited, priority 2018, dated 2023).

Columns and labels:
[1] = molecular target: T1, GST-human KRas166 (G12V) GPPNHP (Homo sapiens, UniProt P01116, G12V); test: KRas small-molecule screening by SPR (BIACORE T200); type: binding; settings: compound at final concentration of 100 uM; immobilised GST-KRAS166 (G12V) GPPNHP, GST reference channel
T1 construct: made in house; host or cells: E. coli C41(DE3)
Procedure: For SPR assays pGEX-KRAS(G12V) plasmid was transformed into E. coli C41(DE3). Bacterial cells were cultured at 37° C. to an OD600 of 0.6 and induced with IPTG (final 0.1 mM) at 18° C. overnight. The GST fusion proteins were extracted from bacteria pellets after cell disruption in 140 mM NaCl, 2.7 mM KCl, […], 1.8 mM KH2PO4, 1 mM EDTA, 2 mM MgCl2 pH 7.4 and purified by glutathione-sepharose column chromatography (GE Healthcare), eluting with 50 mM Tris-HCl pH8.0, 10 mM reduced glutathione, 1 mM DTT, 2 mM MgC2. The eluted proteins were dialysed against 50 mM Tris-HCl pH8.0, 1 mM DTT, 2 mM MgCl2 and concentrated to 10 mg/ml using a Biomax-30 […]-15 centrifugal filter device (Millipore). Purified KRAS protein was loaded with GPPNHP as described elsewhere (Pacold et al., 2000). Loaded protein was then purified by gel filtration on a HiLoad Superdex-75 HR column (GE Healthcare) in 1×PBS pH7.4, 5 mM MgCl2 and concentrated for storage.
To a previously immobilized CM5 chip (GE Healthcare BR-1005-30) with anti GST antibody via amine coupling method, GST in channel 1 and GST-human KRas166 (G12V) GPPNHP in channel 2 were immobilised. GST was immobilised between 2,000 and 5,000 Response units. KRAS166 (G12V) was immobilized between 10,000 to 15,000 Response Units.
In a 96 well plate, compounds were diluted in […], 5 mM MgCl2 and 5% DMSO Buffer to a final concentration of 100 uM. DCAI was used as positive control. Experiment also included a solvent correction curve for 5% DMSO. Screening and evaluation of the protein immobilization and the compounds screening was done accordingly to the BIACORE T200 control and evaluation software.
Protein immobilisation: 10,000 RU; average fragment 300 Da in size. Rmax=(MWA/MWL)×RL×SM MWA is the molecular weight of the analyte in Da MWL is the molecular weight of the ligand in Da RL is the immobilization level in RU SM is the molar stoichiometry (assume 1:1) Rmax=300/47,500×10,000×1 Rmax=63 RU. Cell Viability Assay protocols

[2] = system: H358 cells (ATCC CRL-5807); test: Cell viability assay (CellTiter-Glo), H358 cells; type: cell-based; settings: Homo sapiens, NCI-H358, 48 h incubation, first value of the cell, read-out: Cell Viability (μM) H358 (concentration that decreases cell viability by 50%)
Procedure: (§1) Cells (A549 ATCC CCL-185) are cultured in Dulbecco's Modified Eagle's Medium plus 10% foetal calf serum and 2 mM L-glutamine at 37° C., 5% CO2. Cells are plated onto white clear bottom 96-well plates (5000 cells/well in 200 μl media) and left to adhere overnight at 37° C., 5% CO2. Next day, test compound (1 μl at 200× concentration in 100% DMSO) is added to give final test compound concentration 1× in 0.5% DMSO. After 48 h of incubation at 37° C., 5% CO2, 20 μl CellTiter-Glo reagent (Promega G7572) is added into each well. Plates are incubated at room temperature with shaking for 30 min and then luminescence is read using a PheraStar plate reader. The concentration of compounds that decrease cell viability by 50% is calculated from dose response curves generated using Dotmatics data analysis software.
In the H358 cell assay, cells (ATCC CRL-5807) are cultured in RPM-1640 medium plus 10% foetal calf serum and 2 mM L-glutamine at 37° C., 5% CO2.

[3] = system: DLD1 cells (ATCC CCL-221); test: Cell viability assay (CellTiter-Glo), DLD1 cells; type: cell-based; settings: Homo sapiens, DLD-1 cells, 48 h incubation, second value of the cell, read-out: Cell Viability (μM) DLD-1 (concentration that decreases cell viability by 50%)
Procedure: as §1
In the DLD1 cell assay, cells (ATCC CCL-221) are cultured in RPMI-1640 medium plus 10% foetal calf serum and 2 mM L-glutamine at 37° C., 5% CO2.

Row | SPR Response Units [1] [Response Units] | IC50 [2] [µM] | IC50 [3] [µM] | Structure (SMILES)
1 | 70 | 28 | 5 | CN(C)CC(=O)N[C@H]1CC[C@@H](NC[C@@H]2COc3ccc(OCc4ccccc4)cc3O2)CC1 [Example 50, N-{4-[((R)-7-Benzyloxy-2,3-dihydro-benzo[1,4]dioxin-2-ylmethyl)-amino]-cyclohexyl}-2-dimethylamino-acetamide]
2 | 49 | 59 | 4 | CN1CCC2(CC1)NC(=O)N(C[C@@H]1COc3ccc(OCc4ccccc4)cc3O1)C2=O [Example 77, 3-((R)-7-Benzyloxy-2,3-dihydro-benzo[1,4]dioxin-2-ylmethyl)-8-methyl-1,3,8-triaza-spiro[4.5]decane-2,4-dione]
3 | 72 | 50 | 9 | O=C1CN(C2CCNCC2)C(=O)N1C[C@@H]1COc2ccc(OCc3ccccc3)cc2O1 [Example 79, 3-((R)-7-Benzyloxy-2,3-dihydro-benzo[1,4]dioxin-2-ylmethyl)-1-piperidin-4-yl-imidazolidine-2,4-dione]
4 | 226 | 49 | 2.5 | CN1CCN(Cc2ccc(C(=O)NC[C@@H]3COc4ccc(OCc5ccc(Cl)cc5)cc4O3)o2)CC1 [Example 24, 5-(4-Methyl-piperazin-1-ylmethyl)-furan-2-carboxylic acid [(R)-7-(4-chloro-benzyloxy)-2,3-dihydro-benzo[1,4]dioxin-2-ylmethyl]-amide]
5 | 86 | 35 | 3.5 | CN1CCN(Cc2ccc(C(=O)NC[C@@H]3COc4ccc(OCCc5ccccc5)cc4O3)o2)CC1 [Example 23, 5-(4-Methyl-piperazin-1-ylmethyl)-furan-2-carboxylic acid ((R)-7-phenethyloxy-2,3-dihydro-benzo[1,4]dioxin-2-ylmethyl)-amide]
6 | 48 | 35 | 15.7 | O=C1CCCN1CC(NC[C@@H]1COc2ccc(OCc3ccccc3)cc2O1)c1ccccc1 (stereo partly drawn) [Example 47, 1-{2-[((R)-7-Benzyloxy-2,3-dihydro-benzo[1,4]dioxin-2-ylmethyl)-amino]-2-phenyl-ethyl}-pyrrolidin-2-one]
7 | 61 | 10 | 5.4 | CN1CCC(C(=O)NC[C@@H]2COc3ccc(OCc4ccc(Cl)cc4)cc3O2)CC1 [Example 18, 1-Methyl-piperidine-4-carboxylic acid [(R)-7-(4-chloro-benzyloxy)-2,3-dihydro-benzo[1,4]dioxin-2-ylmethyl]-amide]
8 | 173 | 14 | 2 | CN(C)CCCOc1ccc(CN(C[C@@H]2COc3ccc(OCc4ccccc4)cc3O2)C(=O)c2ncco2)cc1 [Example 40, Oxazole-2-carboxylic acid ((R)-7-benzyloxy-2,3-dihydro-benzo[1,4]dioxin-2-ylmethyl)-[4-(3-dimethylamino-propoxy)-benzyl]-amide]
9 | 221 | > 100 | 9 | NCc1ccc(CN(C[C@@H]2COc3ccc(OCc4ccccc4)cc3O2)C(=O)c2ncco2)cc1 [Example 44, Oxazole-2-carboxylic acid (4-aminomethyl-benzyl)-((R)-7-benzyloxy-2,3-dihydro-benzo[1,4]dioxin-2-ylmethyl)-amide]
10 | 12 | > 100 | 20 | O=C(NC[C@@H]1COc2ccc(OCc3ccccc3)cc2O1)c1ncco1 [Example 3, Oxazole-2-carboxylic acid ((R)-7-benzyloxy-2,3-dihydro-benzo[1,4]dioxin-2-ylmethyl)-amide]
11 | 44 | 33.2 | 5.6 | CN1CCC(C(=O)NC[C@@H]2COc3ccc(OCc4ccc(F)c(F)c4)cc3O2)CC1 [Example 27, 1-Methyl-piperidine-4-carboxylic acid [(R)-7-(3,4-difluoro-benzyloxy)-2,3-dihydro-benzo[1,4]dioxin-2-ylmethyl]-amide]
12 | 166 | 14 | 7.3 | CN(C)CC(=O)N[C@H]1CC[C@@H](N(Cc2ccn[nH]2)C[C@@H]2COc3ccc(OCc4ccccc4)cc3O2)CC1 [Example 51, N-{4-[((R)-7-Benzyloxy-2,3-dihydro-benzo[1,4]dioxin-2-ylmethyl)-(2H-pyrazol-3-ylmethyl)-amino]-cyclohexyl}-2-dimethylamino-acetamide]
13 | 115 | 21.3 | 16.7 | O=C(NCc1ccc(CN2CCNCC2)cc1)C1COc2ccc(OCc3ccccc3)cc2O1 (stereo not drawn) [Example 74, 7-Benzyloxy-2,3-dihydro-benzo[1,4]dioxine-2-carboxylic acid 4-piperazin-1-ylmethyl-benzylamide]
14 | 93 | 29 | 3 | O=C(c1ncco1)N(CC1CCN(Cc2ccccc2)CC1)C[C@@H]1COc2ccc(OCc3ccccc3)cc2O1 [Example 42, Oxazole-2-carboxylic acid ((R)-7-benzyloxy-2,3-dihydro-benzo[1,4]dioxin-2-ylmethyl)-(1-benzyl-piperidin-4-ylmethyl)-amide]
15 | 96 | 46 | 12 | COc1ccc(COc2ccc3c(c2)O[C@H](CNC(=O)c2ccc(CN4CCN(C)CC4)o2)CO3)cc1 [Example 22, 5-(4-Methyl-piperazin-1-ylmethyl)-furan-2-carboxylic acid [(R)-7-(4-methoxy-benzyloxy)-2,3-dihydro-benzo[1,4]dioxin-2-ylmethyl]-amide]
16 | 28 | 18.2 | 9.6 | CN1CCC(C(=O)NC[C@@H]2COc3ccc(OCc4ccc(F)cc4)cc3O2)CC1 [Example 31, 1-Methyl-piperidine-4-carboxylic acid [(R)-7-(4-fluoro-benzyloxy)-2,3-dihydro-benzo[1,4]dioxin-2-ylmethyl]-amide]

Row | Structure (SMILES) | SPR Response Units [1] [Response Units] | IC50 [2] [µM] | IC50 [3] [µM]
17 | O=C(Nc1ncc[nH]1)C1COc2ccc(OCc3ccccc3)cc2O1.O=CO (stereo not drawn) [Example 61, 7-Benzyloxy-2,3-dihydro-benzo[1,4]dioxine-2-carboxylic acid (1H-imidazol-2-yl)-amide; formic acid salt] | 25 | > 100 | 13
18 | O=C(c1ncco1)N(C[C@@H]1COc2ccc(OCc3ccccc3)cc2O1)C1CCN(Cc2ccccc2)CC1 [Example 43, Oxazole-2-carboxylic acid ((R)-7-benzyloxy-2,3-dihydro-benzo[1,4]dioxin-2-ylmethyl)-(1-benzyl-piperidin-4-yl)-amide] | 35 | 20.8 | 18.5
